Results: patent US20210253651A1, “METHOD FOR PRODUCING ORGANIC COMPOUND-ENCAPSULATING FERRITIN” (Ajinomoto Co., Inc., priority 2018, published 2021)

Experiments:
FTH ferritin [1] = target: T1, FTH ferritin (Homo sapiens, UniProt P02794); assay: one-step process incorporation of small molecule agents into FTH ferritin; type: physicochemical; details: for Incorporation efficiency (wt %) / Number of agent incorporated: 60 min
T1 construct: made in house; host or cells: Escherichia coli BL21 (DE3), plasmid pET20-FTH
T1 sequence (P02794 whole entry): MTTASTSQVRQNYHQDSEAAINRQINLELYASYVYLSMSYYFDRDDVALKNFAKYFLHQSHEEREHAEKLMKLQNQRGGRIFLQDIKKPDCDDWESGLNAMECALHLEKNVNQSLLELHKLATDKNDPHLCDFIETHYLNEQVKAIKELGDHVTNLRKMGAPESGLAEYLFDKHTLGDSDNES
Procedure: All of the reactions were performed in 0.1 mL volume. […] The absorbances were measured using spectrophotometer (DU-800, Beckman Coulter Inc.) for these solutions, and the concentration of contained protein was determined using the protein assay CBB solution (Nacalai Tesque, Inc.) as well as bovine albumin as a standard. Absorbances at 280 nm and 480 nm were measured for Rhodamine B and Congo Red. […] Then, after the absorbances were calibrated based on the absorbances that were derived from the proteins and presumed by the amount of contained protein quantified using the protein assay CBB solution, the concentrations of small molecule agents were determined based on the calibration curves obtained by the absorbances of the molecules. […] As a result, the one-step process enabled incorporating also the small molecule agents with different physical properties such as molecular weight and pKa simply and easily.

FTH ferritin [2] = target: T1, FTH ferritin; assay: ratio of amounts incorporated, one-step vs disassembly-reassembly process; type: physicochemical
Procedure: As a control, some of small molecule agents listed in Table 1 was incorporated into ferritin also at the disassembly-reassembly process. […] Then, 10 μL of 1M Tris-HCl buffer (pH 9.0) was added for neutralization, and the resulting solution was left to stand for 15 minutes at room temperature. After the standing, 0.5 mL of water was added. After the resulting solution was centrifuged (at 15,000 rpm for one minute), the supernatant was injected into the desalting column PD-10 (Sephadex G-25 filled product, GE Healthcare Inc.) equilibrated with 10 mM Tris-HCl buffer (pH 8) to separate the protein from a reagent that was not encapsulated. […]
The absorbances were measured using spectrophotometer (DU-800, Beckman Coulter Inc.) for these solutions, and the concentration of contained protein was determined using the protein assay CBB solution (Nacalai Tesque, Inc.) as well as bovine albumin as a standard. Absorbances at 280 nm and 480 nm were measured for Rhodamine B and Congo Red. […] Then, after the absorbances were calibrated based on the absorbances that were derived from the proteins and presumed by the amount of contained protein quantified using the protein assay CBB solution, the concentrations of small molecule agents were determined based on the calibration curves obtained by the absorbances of the molecules. […]

CN(C)C(=N)NC(=N)N [Metformin]
Incorporation efficiency (wt %) (FTH ferritin [1]; pH 4, 40° C.): 0.0 wt %
Number of agent incorporated (FTH ferritin [1]; pH 4, 40° C.): 0.0
Incorporation efficiency (wt %) (FTH ferritin [1]; pH 6, 40° C.): 0.0 wt %
Number of agent incorporated (FTH ferritin [1]; pH 6, 40° C.): 0.2
Incorporation efficiency (wt %) (FTH ferritin [1]; pH 8, 20° C.): 1.9 wt %
Number of agent incorporated (FTH ferritin [1]; pH 8, 20° C.): 78.0
Incorporation efficiency (wt %) (FTH ferritin [1]; pH 8, 40° C.): 0.1 wt %
Number of agent incorporated (FTH ferritin [1]; pH 8, 40° C.): 2.9
Incorporation efficiency (wt %) (FTH ferritin [1]; pH 8, 60° C.): 1.3 wt %
Number of agent incorporated (FTH ferritin [1]; pH 8, 60° C.): 53.5
Incorporation efficiency (wt %) (FTH ferritin [1]; pH 10, 40° C.): 0.0 wt %
Number of agent incorporated (FTH ferritin [1]; pH 10, 40° C.): 1.8
Optimal pH in reaction (FTH ferritin [1]; pH of buffer giving the largest amount of incorporation within ferritin): 8
ratio of amount incorporated at the one-step process to that at the disassembly-reassembly process (FTH ferritin [2]): 2.5 fold
